Patent publication US11959083B2, “Immunosuppression-reverting oligonucleotides inhibiting the expression of CD39” (Secarna Pharmaceuticals GmbH & Co. KG, priority 2016, dated 2024)
l = locked nucleic acid (LNA); d = 2'-deoxy (DNA)

Columns and labels:
hCD39 mRNA [1] = experiment: hCD39 mRNA knockdown efficacy screen in HDLM-2 cells (single dose, gymnotic delivery, QuantiGene Singleplex); type: cell-based, human; design: key to Relative hCD39 mRNA expression (compared to non-treated cells): *: values are below detection limit; details: 10 μM, 3 days; for Mean hCD39 mRNA expression normalized to HPRT1 relative to untreated control = 1: first screening round; for Relative hCD39 mRNA expression (compared to non-treated cells): second screening round, normalized to HPRT1; for Residual hCD39 mRNA expression relative to untreated cells (set as 1): third screening round
Description: (§1) FIGS. 2A to 2D depict hCD39 mRNA knockdown efficacy of hCD39 antisense oligonucleotides in human cancer cell lines HDLM-2 (human Hodgkin Lymphoma) in a first and second screening round (FIGS. 2A-1 and 2A-2) and 2B-1 and 2B-2 and A-172 (human glioblastoma) in a first and second screening round (FIGS. 2C-1 and 2C-2) and 2D-1 and 2D-2. HDLM-2 and A-172 cells were treated for 3 days with 10 μM of the respective antisense oligonucleotide. As negative control, cells were treated with neg1, an antisense oligonucleotide having the sequence CGTTTAGGCTATGTACTT (SEQ ID NO:99) (described in WO2014154843 A1). Residual hCD39 mRNA expression relative to untreated cells is depicted. Expression values were normalized to expression of the housekeeping gene HPRT1. Depicted is the mean of triplicate wells+/−SD.
(§2) FIGS. 6A-6B depicts a third screening round where further antisense oligonucleotides were designed. These antisense oligonucleotides were based on efficient antisense oligonucleotides from the first and second screening round. Therefore, hCD39 antisense oligonucleotides were tested in human cancer cell lines HDLM-2 (human Hodgkin's lymphoma) (FIG. 6A) and A-172 (human glioblastoma) (FIG. 6B). HDLM-2 and A-172 cells were treated for 3 days with 10 μM of the respective antisense oligonucleotide. […] Residual hCD39 mRNA expression relative to untreated cells (set as 1) is depicted.
(§3) In order to analyze the efficacy of hCD39 antisense oligonucleotides of the present invention with regard to the knockdown of hCD39 mRNA expression in cancer cell lines, HDLM-2 (human Hodgkin Lymphoma, DSMZ) and A-172 (human glioblastoma, ATCC) cells were treated with a single dose (concentration: 10 μM without addition of any transfection reagent; this process is called gymnotic delivery) of the respective antisense oligonucleotide as shown in FIG. 2A to 2D. hCD39 and HPRT1 mRNA expression was analyzed three days later using the QuantiGene Singleplex assay (Affymetrix) and hCD39 expression values were normalized to HPRT1 values. […] Values of the mean normalized mRNA expression of hCD39 compared to non-treated cells are listed for A-172 (Table 4 for first screening round and Table 5 for second screening round) and HDLM-2 cells (Table 6 for first screening round and Table 7 for second screening round) in the following:
(§4) For a third screening round, new antisense oligonucleotides were designed. These antisense oligonucleotides were based on efficient antisense oligonucleotides from the first screening round with modifications in length, exact position on mRNA and chemical modification pattern. Therefore, hCD39 antisense oligonucleotides were tested in human cancer cell lines (FIG. 6A, Table 10) HDLM-2 (human Hodgkin's lymphoma) and (FIG. 6B, Table 11) A-172 (human glioblastoma). HDLM-2 and A-172 cells were treated for 3 days with 10 μM of the respective antisense oligonucleotide. […] Residual hCD39 mRNA expression relative to untreated cells (set as 1) is depicted.

hCD39 mRNA [2] = experiment: hCD39 mRNA knockdown efficacy screen in A-172 cells (single dose, gymnotic delivery, QuantiGene Singleplex); type: cell-based, human; details: 10 μM, 3 days; for Mean hCD39 mRNA expression (relative to untreated cells set as 1): first screening round; for Mean hCD39 mRNA expression (relative to untreated cells set as 1) / Relative hCD39 mRNA expression (compared to non-treated cells): normalized to HPRT1; for Relative hCD39 mRNA expression (compared to non-treated cells): second screening round; for Residual hCD39 mRNA expression relative to untreated cells (set as 1): third screening round
Description: as §1, §2, §3, §4

| Substance | Mean hCD39 mRNA expression normalized to HPRT1 relative to untreated control = 1 (hCD39 mRNA [1]) | Relative hCD39 mRNA expression (compared to non-treated cells) (hCD39 mRNA [1]) | Mean hCD39 mRNA expression (relative to untreated cells set as 1) (hCD39 mRNA [2]) | Relative hCD39 mRNA expression (compared to non-treated cells) (hCD39 mRNA [2]) | Residual hCD39 mRNA expression relative to untreated cells (set as 1) (hCD39 mRNA [1]) | Residual hCD39 mRNA expression relative to untreated cells (set as 1) (hCD39 mRNA [2]) |
| --- | --- | --- | --- | --- | --- | --- |
| +C*T*+T*G*C*C*A*T*A*G*A*G*G*C*+G*A*+A (antisense CTTGCCATAGAGGCGAA; sugars from the 5' end ldldddddddddddldl, all phosphorothioate, methylation of C not given here) [A04041H] | 0.18 | * | 0.46 | 0.24 |  |  |
| +A*+G*T*C*C*A*G*C*C*G*G*C*G*T*+C (antisense AGTCCAGCCGGCGTC; sugars from the 5' end l2 d12 l1, all phosphorothioate, methylation of C not given here) [A04015H] | 0.29 | 0.29 |  | 1.05 |  |  |
| +T*+T*+G*C*A*G*A*G*C*A*T*T*+A*+T*+C (antisense TTGCAGAGCATTATC; sugars from the 5' end l3 d9 l3, all phosphorothioate, methylation of C not given here) [A04007H] | 0.23 | 0.23 | 0.53 | 0.53 |  |  |
| +G*+C*+C*C*T*G*A*T*G*T*T*T*G*+A*+A*+T (antisense GCCCTGATGTTTGAAT; sugars from the 5' end l3 d10 l3, all phosphorothioate, methylation of C not given here) [A04054H] |  |  |  |  | 0.13 | 0.60 |
| +G*G*+T*T*T*G*T*G*T*G*A*G*+A*G*+C (antisense GGTTTGTGTGAGAGC; sugars from the 5' end ldldddddddddldl, all phosphorothioate, methylation of C not given here) [A04062H] |  |  |  |  | 0.01 | 0.17 |
| +G*+A*+G*G*C*G*A*A*A*T*T*G*C*A*+G*+A (antisense GAGGCGAAATTGCAGA; sugars from the 5' end l3 d11 l2, all phosphorothioate, methylation of C not given here) [A04024H] | 0.15 | 0.15 | 0.45 | 0.45 |  |  |
| +A*+T*+G*T*A*G*C*C*C*A*A*A*G*T*+C*+C (antisense ATGTAGCCCAAAGTCC; sugars from the 5' end l3 d11 l2, all phosphorothioate, methylation of C not given here) [A04028H] | 0.07 | 0.07 | 0.29 | 0.29 |  |  |
| +C*C*T*A*C*C*C*A*G*G*A*T*A*G*+T*+C (antisense CCTACCCAGGATAGTC; sugars from the 5' end l1 d13 l2, all phosphorothioate, methylation of C not given here) [A04035H] | 0.17 | 0.18 |  | 0.37 |  |  |
| +C*+A*+T*G*T*A*G*C*C*C*A*A*A*+G*+T*+C (antisense CATGTAGCCCAAAGTC; sugars from the 5' end l3 d10 l3, all phosphorothioate, methylation of C not given here) [A04029H] | 0.03 | 0.03 | 0.45 | 0.46 |  |  |
| +T*G*+T*A*G*A*G*G*C*T*C*C*C*+C*+C (antisense TGTAGAGGCTCCCCC; sugars from the 5' end l1 d1 l1 d10 l2, all phosphorothioate, methylation of C not given here) [A04006H] | 0.20 | 0.20 | 0.19 | 0.20 |  |  |
| +G*+C*+C*T*T*G*A*A*C*A*C*T*G*C*+G*+A (antisense GCCTTGAACACTGCGA; sugars from the 5' end l3 d11 l2, all phosphorothioate, methylation of C not given here) [A04032H] | 0.06 | 0.01 | 0.19 | 0.10 |  |  |
| +T*+A*G*A*C*A*T*T*G*T*A*G*+T*+C*+C (antisense TAGACATTGTAGTCC; sugars from the 5' end l2 d10 l3, all phosphorothioate, methylation of C not given here) [A04009H] | 0.15 | 0.15 | 0.28 | 0.29 |  |  |
| +G*+C*C*A*T*A*G*G*C*A*C*C*+T*+T*+C (antisense GCCATAGGCACCTTC; sugars from the 5' end l2 d10 l3, all phosphorothioate, methylation of C not given here) [A04004H] | 0.22 | 0.21 | 0.65 | 0.66 |  |  |
| +A*+G*+C*G*T*A*A*G*A*T*G*T*+T*+T*+T (antisense AGCGTAAGATGTTTT; sugars from the 5' end l3 d9 l3, all phosphorothioate, methylation of C not given here) [A04012H] | 0.11 | 0.10 | 0.43 | 0.43 |  |  |
| +A*+C*+T*C*C*A*C*A*C*T*A*A*T*+G*+C*+T (antisense ACTCCACACTAATGCT; sugars from the 5' end l3 d10 l3, all phosphorothioate, methylation of C not given here) [A04037H] | 0.12 | 0.10 | 0.17 | 0.09 |  |  |
| +C*+C*+C*T*C*T*C*A*C*T*A*A*A*+T*+T*+A (antisense CCCTCTCACTAAATTA; sugars from the 5' end l3 d10 l3, all phosphorothioate, methylation of C not given here) [A04036H] | 0.26 | 0.01 | 0.55 | 0.28 |  |  |
| +A*+G*+C*C*T*A*T*G*A*T*G*G*C*C*+A*+C (antisense AGCCTATGATGGCCAC; sugars from the 5' end l3 d11 l2, all phosphorothioate, methylation of C not given here) [A04031H] |  | * |  | 0.55 |  |  |
